Several values for one entry are separate records, joined by “and”; a condition that tells them apart may be missing. Equal values may be shown once. Inconclusive results and toxic doses are left out. Rule as the data show it: active = T/C of 150% or more; inactive = T/C below 125%.
System: L1210 leukemia ip in BDF1 mice, survival T/C
Assay: NCI In Vivo Anticancer Drug Screen. Data for tumor model L1210 Leukemia (intraperitoneal) in B6D2F1 (BDF1) mice
Conditions: endpoint: mean survival time, higher = longer survival
Outline: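 Each compound was tested against a transplantable tumor grown in mice. The endpoint was survival, with treated animals benchmarked against vehicle controls as a simple ratio.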

[1] = dose: 100.0 mg/kg/injection, schedule: Q01DX009 (ip), vehicle: saline with Tween-80
[2] = dose: 200.0 mg/kg/injection, schedule: Q01DX009 (ip), vehicle: saline with Tween-80
[3] = dose: 400.0 mg/kg/injection, schedule: Q01DX009 (ip), vehicle: saline with Tween-80
[4] = dose: 100.0 mg/kg/injection, schedule: Q04DX003 (ip), vehicle: saline with Tween-80
[5] = dose: 200.0 mg/kg/injection, schedule: Q04DX003 (ip), vehicle: saline with Tween-80
[6] = dose: 100.0 mg/kg/injection, schedule: Q01DX009 (ip), vehicle: Klucel (hydroxypropylcellulose) (HPC)
[7] = dose: 200.0 mg/kg/injection, schedule: Q01DX009 (ip), vehicle: Klucel (hydroxypropylcellulose) (HPC)
[8] = dose: 400.0 mg/kg/injection, schedule: Q01DX009 (ip), vehicle: Klucel (hydroxypropylcellulose) (HPC)

Measured: T/C

ClC(Cl)(Cl)C/C=C\CBr
inactive: dose: 25.0 mg/kg/injection, schedule: Q01DX009 (ip), vehicle: acetone 98 % of control | dose: 50.0 mg/kg/injection, schedule: Q01DX009 (ip), vehicle: acetone 102 % of control | dose: 50.0 mg/kg/injection, schedule: Q04DX003 (ip), vehicle: acetone 97 % of control | dose: 100.0 mg/kg/injection, schedule: Q01DX001 (ip), vehicle: acetone 89 % of control | dose: 100.0 mg/kg/injection, schedule: Q01DX009 (ip), vehicle: acetone 93 % of control | dose: 100.0 mg/kg/injection, schedule: Q04DX003 (ip), vehicle: acetone 92 % of control | dose: 200.0 mg/kg/injection, schedule: Q01DX001 (ip), vehicle: acetone 91 % of control

O=C(CCCC(=O)NNC(=O)Nc1cc(Cl)ccc1Cl)NNC(=O)Nc1cc(Cl)ccc1Cl
inactive: dose: 50.0 mg/kg/injection, schedule: Q01DX001 (ip), vehicle: saline 108 % of control | dose: 100.0 mg/kg/injection, schedule: Q01DX001 (ip), vehicle: saline 102 % of control | dose: 200.0 mg/kg/injection, schedule: Q01DX001 (ip), vehicle: saline 102 % of control | dose: 400.0 mg/kg/injection, schedule: Q01DX001 (ip), vehicle: saline 102 % of control

Cc1cc(CSC2=NCCN2)c(C)cc1CSC1=NCCN1
inactive: dose: 25.0 mg/kg/injection, schedule: Q04DX002 (ip), vehicle: saline with Tween-80 111 % of control | dose: 50.0 mg/kg/injection, schedule: Q04DX002 (ip), vehicle: saline with Tween-80 100 % of control | dose: 100.0 mg/kg/injection, schedule: Q04DX002 (ip), vehicle: saline with Tween-80 101 % of control and 109 % of control

CC(C)CC1(C)NC(=O)NC1=O (configuration not stated)
inactive: [1] 97 % of control | [2] 102 % of control | [3] 97 % of control

COc1cccc(/C=C2\N=C(c3ccccc3)OC2=O)c1
inactive: [1] 102 % of control | [4] 97 % of control | [2] 107 % of control | [5] 94 % of control | [3] 102 % of control and 90 % of control | dose: 400.0 mg/kg/injection, schedule: Q04DX003 (ip), vehicle: saline with Tween-80 93 % of control

CCC(O)Cc1c[nH]c(=O)[nH]c1=O (configuration not stated)
inactive: dose: 50.0 mg/kg/injection, schedule: Q01DX009 (ip), vehicle: saline 93 % of control | dose: 100.0 mg/kg/injection, schedule: Q01DX009 (ip), vehicle: saline 98 % of control | [4] 94 % of control | [5] 94 % of control

O=C(Nc1c(Br)cc2c(c1Br)Cc1cc([N+](=O)[O-])ccc1-2)C(Cl)Cl
inactive: dose: 100.0 mg/kg/injection, schedule: Q01DX001 (ip), vehicle: carboxymethylcellulose (CMC) 98 % of control | dose: 200.0 mg/kg/injection, schedule: Q01DX001 (ip), vehicle: carboxymethylcellulose (CMC) 107 % of control | dose: 400.0 mg/kg/injection, schedule: Q01DX001 (ip), vehicle: carboxymethylcellulose (CMC) 109 % of control

O=[N+]([O-])c1ccc(S(=O)(=O)CCCl)cc1
inactive: dose: 50.0 mg/kg/injection, schedule: Q01DX009 (ip), vehicle: Klucel (hydroxypropylcellulose) (HPC) 100 % of control | [6] 91 % of control

CCOc1ccc(/C=N/NC(=O)CCCCCCCCC(=O)N/N=C/c2ccc(OCC)c(OC)c2)cc1OC
inactive: [6] 95 % of control | [7] 88 % of control | [8] 97 % of control

CCCCCCNC(=O)Nc1ccccc1Cl
inactive: [6] 97 % of control | [7] 100 % of control | [8] 105 % of control

O=C(COc1ccccc1)NCCNC(=S)Nc1ccccc1
inactive: dose: 100.0 mg/kg/injection, schedule: Q01DX001 (ip), vehicle: saline with Tween-80 102 % of control | dose: 200.0 mg/kg/injection, schedule: Q01DX001 (ip), vehicle: saline with Tween-80 94 % of control | dose: 400.0 mg/kg/injection, schedule: Q01DX001 (ip), vehicle: saline with Tween-80 112 % of control

O=C(C(Br)C(Br)c1ccccc1)N1CCOCC1 (configuration not stated)
inactive: dose: 100.0 mg/kg/injection, schedule: Q01DX009 (ip), vehicle: saline sonified 108 % of control | dose: 100.0 mg/kg/injection, schedule: Q04DX003 (ip), vehicle: saline 109 % of control | dose: 200.0 mg/kg/injection, schedule: Q01DX009 (ip), vehicle: saline sonified 101 % of control | dose: 200.0 mg/kg/injection, schedule: Q04DX003 (ip), vehicle: saline 100 % of control | dose: 400.0 mg/kg/injection, schedule: Q01DX009 (ip), vehicle: saline sonified 95 % of control | dose: 400.0 mg/kg/injection, schedule: Q04DX003 (ip), vehicle: saline 98 % of control

From PubChem BioAssay AID248 (DTP/NCI, 2004)
